In patent US20230085307A1, “PYRIDAZINONE COMPOUND AND HERBICIDE” (NISSAN CHEMICAL CORPORATION, priority 2019, published 2023):

test system: late watergrass; test: Test Example 1: herbicidal activity, application before weed generation under submerged conditions (Table 16, symbol A); assay type: in vivo, late watergrass (Echinochloa oryzicola); settings: 320 g/ha applied herbicide
Outline: (§1)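 Alluvial soil was flooded to 4 cm depth, weed seeds were sown mixed and 2.5-leaf rice seedlings were transplanted. On sowing day, the compound's emulsion, diluted in water to a set dose, was applied to the water surface. Plants grew at 25–30 °C and were scored 0–5 after three weeks.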

Structure (SMILES)	Herbicidal effect on A: late watergrass (grade 0-5)
Cc1nn(C)c(=O)c(-c2c(-c3ccc(OC(F)F)cc3)sc3ccc(F)cc23)c1OC(=O)OCCCl [2-293]	5 (Herbicidal rate of 90% or more (almost completely withered))
Cc1nn(C)c(=O)c(-c2c(-c3ccc(OC(F)F)cc3)sc3ccc(F)cc23)c1OC(=S)Sc1ccccc1 [2-298]	3 (Herbicidal rate of 40% or more and less than 70%)

test system: Japanese bulrush; test: Test Example 1: herbicidal activity, application before weed generation under submerged conditions (Table 16, symbol B); assay type: in vivo, Japanese bulrush (Schoenoplectus juncoides); settings: 320 g/ha applied herbicide
Outline: as §1

Structure (SMILES)	Herbicidal effect on B: Japanese bulrush (grade 0-5)
Cc1nn(C)c(=O)c(-c2c(-c3ccc(OC(F)F)cc3)sc3ccc(F)cc23)c1OC(=O)OCCCl [2-293]	5 (Herbicidal rate of 90% or more (almost completely withered))
Cc1nn(C)c(=O)c(-c2c(-c3ccc(OC(F)F)cc3)sc3ccc(F)cc23)c1OC(=S)Sc1ccccc1 [2-298]	3 (Herbicidal rate of 40% or more and less than 70%)

test system: oval-leafed pondweed; test: Test Example 1: herbicidal activity, application before weed generation under submerged conditions (Table 16, symbol C); assay type: in vivo, oval-leafed pondweed (Monochoria vaginalis); settings: 320 g/ha applied herbicide
Outline: as §1

Structure (SMILES)	Herbicidal effect on C: oval-leafed pondweed (grade 0-5)
Cc1nn(C)c(=O)c(-c2c(-c3ccc(OC(F)F)cc3)sc3ccc(F)cc23)c1OC(=O)OCCCl [2-293]	4 (Herbicidal rate of 70% or more and less than 90%)
Cc1nn(C)c(=O)c(-c2c(-c3ccc(OC(F)F)cc3)sc3ccc(F)cc23)c1OC(=S)Sc1ccccc1 [2-298]	3 (Herbicidal rate of 40% or more and less than 70%)

test system: barnyard grass; test: Test Example 3: herbicidal effect by foliage application, Wagner pot (Table 18, symbol H); assay type: in vivo, barnyard grass (Echinochloa crus-galli); settings: amount of applied herbicide 320 g/ha
Outline: (§2)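 Plants were sown in alluvial soil held under 0.1–0.5 cm standing water and grown 14 days in a greenhouse at 25–30 °C. An emulsifiable formulation, water-diluted to the set dose, was then sprayed onto the foliage, and effects were scored three weeks later using previously defined criteria.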

Structure (SMILES)	herbicidal effect on H: barnyard grass
Cc1nn(C)c(=O)c(-c2c(-c3ccc(OC(F)F)cc3)sc3ccc(F)cc23)c1OC(=O)OCCCl [2-293]	5 (Herbicidal rate of 90% or more (almost completely withered))
Cc1nn(C)c(=O)c(-c2c(-c3ccc(OC(F)F)cc3)sc3ccc(F)cc23)c1OC(=S)Sc1ccccc1 [2-298]	5 (Herbicidal rate of 90% or more (almost completely withered))

test system: Chinese sprangletop; test: Test Example 3: herbicidal effect by foliage application, Wagner pot (Table 18, symbol D); assay type: in vivo, chinese sprangletop (Leptochloa chinensis); settings: amount of applied herbicide 320 g/ha
Outline: as §2

Structure (SMILES)	herbicidal effect on D: Chinese sprangletop
Cc1nn(C)c(=O)c(-c2c(-c3ccc(OC(F)F)cc3)sc3ccc(F)cc23)c1OC(=O)OCCCl [2-293]	3 (Herbicidal rate of 40% or more and less than 70%)
Cc1nn(C)c(=O)c(-c2c(-c3ccc(OC(F)F)cc3)sc3ccc(F)cc23)c1OC(=S)Sc1ccccc1 [2-298]	3 (Herbicidal rate of 40% or more and less than 70%)

test system: rice flat sedge; test: Test Example 3: herbicidal effect by foliage application, Wagner pot (Table 18, symbol E); assay type: in vivo, rice flat sedge (Cyperus iria); settings: amount of applied herbicide 320 g/ha
Outline: as §2

Structure (SMILES)	herbicidal effect on E: rice flat sedge
Cc1nn(C)c(=O)c(-c2c(-c3ccc(OC(F)F)cc3)sc3ccc(F)cc23)c1OC(=O)OCCCl [2-293]	5 (Herbicidal rate of 90% or more (almost completely withered))
Cc1nn(C)c(=O)c(-c2c(-c3ccc(OC(F)F)cc3)sc3ccc(F)cc23)c1OC(=S)Sc1ccccc1 [2-298]	5 (Herbicidal rate of 90% or more (almost completely withered))

test system: Italian ryegrass; test: Test Example 4: herbicidal effect by soil treatment (Table 19, symbol K); assay type: in vivo, Italian ryegrass (Lolium multiflorum); settings: amount of applied herbicide 320 g/ha
Outline: (§3)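 Pre-emergence style soil spray: seeds under ~1.5 cm sterilized diluvial soil received a uniform coat of emulsion diluted to the predetermined herbicide amount. Greenhouse 25–30° C; readout at week three on previously defined criteria.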

Structure (SMILES)	herbicidal effect on K: Italian ryegrass
Cc1nn(C)c(=O)c(-c2c(-c3ccc(OC(F)F)cc3)sc3ccc(F)cc23)c1OC(=O)OCCCl [2-293]	5 (Herbicidal rate of 90% or more (almost completely withered))
Cc1nn(C)c(=O)c(-c2c(-c3ccc(OC(F)F)cc3)sc3ccc(F)cc23)c1OC(=S)Sc1ccccc1 [2-298]	0 (Herbicidal rate of 5% or less (almost no effect))

test system: windgrass; test: Test Example 4: herbicidal effect by soil treatment (Table 19, symbol L); assay type: in vivo, windgrass (Apera spica-venti); settings: amount of applied herbicide 320 g/ha
Outline: as §3

Structure (SMILES)	herbicidal effect on L: windgrass
Cc1nn(C)c(=O)c(-c2c(-c3ccc(OC(F)F)cc3)sc3ccc(F)cc23)c1OC(=O)OCCCl [2-293]	4 (Herbicidal rate of 70% or more and less than 90%)
Cc1nn(C)c(=O)c(-c2c(-c3ccc(OC(F)F)cc3)sc3ccc(F)cc23)c1OC(=S)Sc1ccccc1 [2-298]	0 (Herbicidal rate of 5% or less (almost no effect))

test system: lambsquarters; test: Test Example 4: herbicidal effect by soil treatment (Table 19, symbol O); assay type: in vivo, lambsquarters (Chenopodium album); settings: amount of applied herbicide 320 g/ha
Outline: as §3

Structure (SMILES)	herbicidal effect on O: lambsquarters
Cc1nn(C)c(=O)c(-c2c(-c3ccc(OC(F)F)cc3)sc3ccc(F)cc23)c1OC(=O)OCCCl [2-293]	5 (Herbicidal rate of 90% or more (almost completely withered))
Cc1nn(C)c(=O)c(-c2c(-c3ccc(OC(F)F)cc3)sc3ccc(F)cc23)c1OC(=S)Sc1ccccc1 [2-298]	3 (Herbicidal rate of 40% or more and less than 70%)

test system: chickweed; test: Test Example 4: herbicidal effect by soil treatment (Table 19, symbol P); assay type: in vivo, common chickweed (Stellaria media); settings: amount of applied herbicide 320 g/ha
Outline: as §3

Structure (SMILES)	herbicidal effect on P: chickweed
Cc1nn(C)c(=O)c(-c2c(-c3ccc(OC(F)F)cc3)sc3ccc(F)cc23)c1OC(=O)OCCCl [2-293]	4 (Herbicidal rate of 70% or more and less than 90%)
Cc1nn(C)c(=O)c(-c2c(-c3ccc(OC(F)F)cc3)sc3ccc(F)cc23)c1OC(=S)Sc1ccccc1 [2-298]	0 (Herbicidal rate of 5% or less (almost no effect))

test system: persian speedwell; test: Test Example 4: herbicidal effect by soil treatment (Table 19, symbol R); assay type: in vivo, Persian speedwell (Veronica persica); settings: amount of applied herbicide 320 g/ha
Outline: as §3

Structure (SMILES)	herbicidal effect on R: persian speedwell
Cc1nn(C)c(=O)c(-c2c(-c3ccc(OC(F)F)cc3)sc3ccc(F)cc23)c1OC(=O)OCCCl [2-293]	5 (Herbicidal rate of 90% or more (almost completely withered))
Cc1nn(C)c(=O)c(-c2c(-c3ccc(OC(F)F)cc3)sc3ccc(F)cc23)c1OC(=S)Sc1ccccc1 [2-298]	1 (Herbicidal rate of 5% or more and less than 20%)

test system: southern crabgrass; test: Test Example 5: herbicidal effect by foliage application, plastic box (Table 20, symbol F); assay type: in vivo, southern crabgrass (Digitaria ciliaris); settings: foliage application, AAH 320 g/ha, evaluated three weeks after application
Outline: (§4)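 Plants were sown into sterilized diluvial soil under about 1.5 cm cover and kept in a greenhouse at 25° C. to 30° C. Fourteen days on, foliage received an even spray of the diluted emulsion. Herbicidal or crop effect was judged three weeks afterwards.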

Structure (SMILES)	F: southern crabgrass, herbicidal effect (criteria 0-5)
Cc1nn(C)c(=O)c(-c2c(-c3ccc(OC(F)F)cc3)sc3ccc(F)cc23)c1OC(=O)OCCCl [2-293]	5 (Herbicidal rate of 90% or more (almost completely withered))
Cc1nn(C)c(=O)c(-c2c(-c3ccc(OC(F)F)cc3)sc3ccc(F)cc23)c1OC(=S)Sc1ccccc1 [2-298]	3 (Herbicidal rate of 40% or more and less than 70%)

test system: barnyard grass; test: Test Example 5: herbicidal effect by foliage application, plastic box (Table 20, symbol H); assay type: in vivo, barnyard grass (Echinochloa crus-galli); settings: foliage application, AAH 320 g/ha, evaluated three weeks after application
Outline: as §4

Structure (SMILES)	H: barnyard grass, herbicidal effect (criteria 0-5)
Cc1nn(C)c(=O)c(-c2c(-c3ccc(OC(F)F)cc3)sc3ccc(F)cc23)c1OC(=O)OCCCl [2-293]	5 (Herbicidal rate of 90% or more (almost completely withered))
Cc1nn(C)c(=O)c(-c2c(-c3ccc(OC(F)F)cc3)sc3ccc(F)cc23)c1OC(=S)Sc1ccccc1 [2-298]	5 (Herbicidal rate of 90% or more (almost completely withered))

test system: wild oat; test: Test Example 5: herbicidal effect by foliage application, plastic box (Table 20, symbol I); assay type: in vivo, wild oat (Avena fatua); settings: foliage application, AAH 320 g/ha, evaluated three weeks after application
Outline: as §4

Structure (SMILES)	I: wild oat, herbicidal effect (criteria 0-5)
Cc1nn(C)c(=O)c(-c2c(-c3ccc(OC(F)F)cc3)sc3ccc(F)cc23)c1OC(=O)OCCCl [2-293]	3 (Herbicidal rate of 40% or more and less than 70%)
Cc1nn(C)c(=O)c(-c2c(-c3ccc(OC(F)F)cc3)sc3ccc(F)cc23)c1OC(=S)Sc1ccccc1 [2-298]	4 (Herbicidal rate of 70% or more and less than 90%)

test system: blackgrass; test: Test Example 5: herbicidal effect by foliage application, plastic box (Table 20, symbol J); assay type: in vivo, blackgrass (Alopecurus myosuroides); settings: foliage application, AAH 320 g/ha, evaluated three weeks after application
Outline: as §4

Structure (SMILES)	J: blackgrass, herbicidal effect (criteria 0-5)
Cc1nn(C)c(=O)c(-c2c(-c3ccc(OC(F)F)cc3)sc3ccc(F)cc23)c1OC(=O)OCCCl [2-293]	5 (Herbicidal rate of 90% or more (almost completely withered))
Cc1nn(C)c(=O)c(-c2c(-c3ccc(OC(F)F)cc3)sc3ccc(F)cc23)c1OC(=S)Sc1ccccc1 [2-298]	4 (Herbicidal rate of 70% or more and less than 90%)

test system: windgrass; test: Test Example 5: herbicidal effect by foliage application, plastic box (Table 20, symbol L); assay type: in vivo, windgrass (Apera spica-venti); settings: foliage application, AAH 320 g/ha, evaluated three weeks after application
Outline: as §4

Structure (SMILES)	L: windgrass, herbicidal effect (criteria 0-5)
Cc1nn(C)c(=O)c(-c2c(-c3ccc(OC(F)F)cc3)sc3ccc(F)cc23)c1OC(=O)OCCCl [2-293]	4 (Herbicidal rate of 70% or more and less than 90%)
Cc1nn(C)c(=O)c(-c2c(-c3ccc(OC(F)F)cc3)sc3ccc(F)cc23)c1OC(=S)Sc1ccccc1 [2-298]	0 (Herbicidal rate of 5% or less (almost no effect))

test system: velvetleaf; test: Test Example 5: herbicidal effect by foliage application, plastic box (Table 20, symbol M); assay type: in vivo, velvetleaf (Abutilon theophrasti); settings: foliage application, AAH 320 g/ha, evaluated three weeks after application
Outline: as §4

Structure (SMILES)	M: velvetleaf, herbicidal effect (criteria 0-5)
Cc1nn(C)c(=O)c(-c2c(-c3ccc(OC(F)F)cc3)sc3ccc(F)cc23)c1OC(=O)OCCCl [2-293]	5 (Herbicidal rate of 90% or more (almost completely withered))
Cc1nn(C)c(=O)c(-c2c(-c3ccc(OC(F)F)cc3)sc3ccc(F)cc23)c1OC(=S)Sc1ccccc1 [2-298]	5 (Herbicidal rate of 90% or more (almost completely withered))

test system: redroot pigweed; test: Test Example 5: herbicidal effect by foliage application, plastic box (Table 20, symbol N); assay type: in vivo, redroot pigweed (Amaranthus retroflexus); settings: foliage application, AAH 320 g/ha, evaluated three weeks after application
Outline: as §4

Structure (SMILES)	N: redroot pigweed, herbicidal effect (criteria 0-5)
Cc1nn(C)c(=O)c(-c2c(-c3ccc(OC(F)F)cc3)sc3ccc(F)cc23)c1OC(=O)OCCCl [2-293]	5 (Herbicidal rate of 90% or more (almost completely withered))
Cc1nn(C)c(=O)c(-c2c(-c3ccc(OC(F)F)cc3)sc3ccc(F)cc23)c1OC(=S)Sc1ccccc1 [2-298]	5 (Herbicidal rate of 90% or more (almost completely withered))

test system: chickweed; test: Test Example 5: herbicidal effect by foliage application, plastic box (Table 20, symbol P); assay type: in vivo, common chickweed (Stellaria media); settings: foliage application, AAH 320 g/ha, evaluated three weeks after application
Outline: as §4

Structure (SMILES)	P: chickweed, herbicidal effect (criteria 0-5)
Cc1nn(C)c(=O)c(-c2c(-c3ccc(OC(F)F)cc3)sc3ccc(F)cc23)c1OC(=O)OCCCl [2-293]	5 (Herbicidal rate of 90% or more (almost completely withered))
Cc1nn(C)c(=O)c(-c2c(-c3ccc(OC(F)F)cc3)sc3ccc(F)cc23)c1OC(=S)Sc1ccccc1 [2-298]	5 (Herbicidal rate of 90% or more (almost completely withered))
